Columns and labels:
[1] = test system: MV4-11; experiment: Antiproliferative activity against […] FLT3 expressing human MV411 cells after 72 hrs by WST8 assay; format: functional, cell-based; details: MV4-11, 72 h
[2] = Antiproliferative activity against human RS4:11 cells having FLT3-ITD mutation after 72 hrs by WST8 assay; format: functional, cell-based; details: RS4-11, 72 h
[3] = target: T1, Receptor-type tyrosine-protein kinase FLT3 (Homo sapiens, UniProt P36888); experiment: Inhibition of FLT3 by HTRF assay
T1 sequence (P36888 whole entry): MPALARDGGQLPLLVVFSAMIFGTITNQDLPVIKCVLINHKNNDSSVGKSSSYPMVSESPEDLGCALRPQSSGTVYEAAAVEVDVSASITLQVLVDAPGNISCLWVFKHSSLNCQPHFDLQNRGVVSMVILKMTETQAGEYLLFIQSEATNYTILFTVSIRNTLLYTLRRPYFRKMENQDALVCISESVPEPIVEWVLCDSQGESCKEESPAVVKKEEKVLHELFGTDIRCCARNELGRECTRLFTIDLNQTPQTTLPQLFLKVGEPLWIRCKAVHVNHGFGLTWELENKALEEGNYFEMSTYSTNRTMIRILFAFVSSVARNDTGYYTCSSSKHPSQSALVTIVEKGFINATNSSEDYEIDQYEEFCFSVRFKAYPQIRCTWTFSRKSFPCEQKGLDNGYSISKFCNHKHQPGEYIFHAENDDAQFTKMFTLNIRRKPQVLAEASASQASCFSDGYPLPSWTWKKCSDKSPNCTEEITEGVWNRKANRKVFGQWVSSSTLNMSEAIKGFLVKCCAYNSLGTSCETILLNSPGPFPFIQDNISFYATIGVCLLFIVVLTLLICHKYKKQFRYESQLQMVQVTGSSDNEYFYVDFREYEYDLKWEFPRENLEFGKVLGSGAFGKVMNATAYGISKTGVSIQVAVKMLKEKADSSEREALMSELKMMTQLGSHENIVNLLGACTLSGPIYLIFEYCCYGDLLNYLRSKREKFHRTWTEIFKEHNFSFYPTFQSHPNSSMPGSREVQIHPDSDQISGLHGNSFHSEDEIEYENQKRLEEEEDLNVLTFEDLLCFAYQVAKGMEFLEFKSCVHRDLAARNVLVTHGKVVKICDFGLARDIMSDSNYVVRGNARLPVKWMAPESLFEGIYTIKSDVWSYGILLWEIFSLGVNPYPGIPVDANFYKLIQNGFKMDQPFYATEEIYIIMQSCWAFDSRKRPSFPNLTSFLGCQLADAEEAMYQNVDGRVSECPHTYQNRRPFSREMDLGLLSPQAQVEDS

[4] = test system: MV4-11; experiment: Cell cycle arrest in human MV411 cells assessed as accumulation at G0/G1 phase at 0.01 uM after 48 hrs by propidium iodide assay; format: functional
[5] = test system: MV4-11; experiment: Cell cycle arrest in human MV411 cells assessed as accumulation at sub-G1 phase at 0.1 uM after 48 hrs by propidium iodide assay; format: functional
[6] = test system: MV4-11; experiment: Cell cycle arrest in human MV411 cells assessed as accumulation at sub-G1 phase at 1 uM after 48 hrs by propidium iodide assay; format: functional
[7] = target: Hepatocyte growth factor receptor (Homo sapiens, UniProt P08581); experiment: Inhibition of Met by HTRF assay
Sequence of Hepatocyte growth factor receptor (P08581 whole entry): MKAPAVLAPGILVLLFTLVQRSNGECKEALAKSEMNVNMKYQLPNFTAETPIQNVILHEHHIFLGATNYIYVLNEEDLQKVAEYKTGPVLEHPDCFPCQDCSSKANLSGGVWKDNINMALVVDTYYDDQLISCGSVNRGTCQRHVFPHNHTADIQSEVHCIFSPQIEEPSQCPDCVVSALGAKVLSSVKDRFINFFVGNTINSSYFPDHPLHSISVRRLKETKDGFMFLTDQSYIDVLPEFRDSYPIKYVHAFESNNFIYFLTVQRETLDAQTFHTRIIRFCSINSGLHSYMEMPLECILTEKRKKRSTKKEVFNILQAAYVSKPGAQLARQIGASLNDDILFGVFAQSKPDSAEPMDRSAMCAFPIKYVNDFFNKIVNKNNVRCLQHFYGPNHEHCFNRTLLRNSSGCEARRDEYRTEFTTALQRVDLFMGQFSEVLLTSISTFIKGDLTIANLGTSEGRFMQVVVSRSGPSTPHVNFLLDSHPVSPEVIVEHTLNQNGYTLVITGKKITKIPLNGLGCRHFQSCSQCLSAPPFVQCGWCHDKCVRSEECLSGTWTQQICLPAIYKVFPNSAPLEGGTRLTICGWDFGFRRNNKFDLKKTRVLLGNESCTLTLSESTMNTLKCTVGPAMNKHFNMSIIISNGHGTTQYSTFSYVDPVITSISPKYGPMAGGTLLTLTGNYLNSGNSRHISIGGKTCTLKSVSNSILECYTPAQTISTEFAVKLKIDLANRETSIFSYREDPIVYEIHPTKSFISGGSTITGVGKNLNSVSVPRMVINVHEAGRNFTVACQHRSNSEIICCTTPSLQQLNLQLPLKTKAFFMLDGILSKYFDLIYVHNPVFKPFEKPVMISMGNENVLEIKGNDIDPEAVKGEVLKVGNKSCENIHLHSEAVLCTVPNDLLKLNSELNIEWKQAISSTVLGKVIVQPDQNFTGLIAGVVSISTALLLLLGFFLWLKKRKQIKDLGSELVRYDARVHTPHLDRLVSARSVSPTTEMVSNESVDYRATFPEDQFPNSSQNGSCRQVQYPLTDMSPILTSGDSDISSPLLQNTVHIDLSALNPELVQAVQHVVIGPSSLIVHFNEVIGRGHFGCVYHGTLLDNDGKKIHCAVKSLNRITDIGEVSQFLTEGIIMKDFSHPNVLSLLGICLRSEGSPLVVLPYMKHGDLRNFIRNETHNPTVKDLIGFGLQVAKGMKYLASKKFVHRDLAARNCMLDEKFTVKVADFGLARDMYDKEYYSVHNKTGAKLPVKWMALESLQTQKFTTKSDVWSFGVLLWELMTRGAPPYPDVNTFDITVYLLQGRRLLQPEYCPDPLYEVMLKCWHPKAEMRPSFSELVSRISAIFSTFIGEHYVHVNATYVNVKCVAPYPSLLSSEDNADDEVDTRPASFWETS

[8] = target: Vascular endothelial growth factor receptor 2 (Homo sapiens, UniProt P35968); experiment: Inhibition of VEGFR2 by HTRF assay
Sequence of Vascular endothelial growth factor receptor 2 (P35968 whole entry): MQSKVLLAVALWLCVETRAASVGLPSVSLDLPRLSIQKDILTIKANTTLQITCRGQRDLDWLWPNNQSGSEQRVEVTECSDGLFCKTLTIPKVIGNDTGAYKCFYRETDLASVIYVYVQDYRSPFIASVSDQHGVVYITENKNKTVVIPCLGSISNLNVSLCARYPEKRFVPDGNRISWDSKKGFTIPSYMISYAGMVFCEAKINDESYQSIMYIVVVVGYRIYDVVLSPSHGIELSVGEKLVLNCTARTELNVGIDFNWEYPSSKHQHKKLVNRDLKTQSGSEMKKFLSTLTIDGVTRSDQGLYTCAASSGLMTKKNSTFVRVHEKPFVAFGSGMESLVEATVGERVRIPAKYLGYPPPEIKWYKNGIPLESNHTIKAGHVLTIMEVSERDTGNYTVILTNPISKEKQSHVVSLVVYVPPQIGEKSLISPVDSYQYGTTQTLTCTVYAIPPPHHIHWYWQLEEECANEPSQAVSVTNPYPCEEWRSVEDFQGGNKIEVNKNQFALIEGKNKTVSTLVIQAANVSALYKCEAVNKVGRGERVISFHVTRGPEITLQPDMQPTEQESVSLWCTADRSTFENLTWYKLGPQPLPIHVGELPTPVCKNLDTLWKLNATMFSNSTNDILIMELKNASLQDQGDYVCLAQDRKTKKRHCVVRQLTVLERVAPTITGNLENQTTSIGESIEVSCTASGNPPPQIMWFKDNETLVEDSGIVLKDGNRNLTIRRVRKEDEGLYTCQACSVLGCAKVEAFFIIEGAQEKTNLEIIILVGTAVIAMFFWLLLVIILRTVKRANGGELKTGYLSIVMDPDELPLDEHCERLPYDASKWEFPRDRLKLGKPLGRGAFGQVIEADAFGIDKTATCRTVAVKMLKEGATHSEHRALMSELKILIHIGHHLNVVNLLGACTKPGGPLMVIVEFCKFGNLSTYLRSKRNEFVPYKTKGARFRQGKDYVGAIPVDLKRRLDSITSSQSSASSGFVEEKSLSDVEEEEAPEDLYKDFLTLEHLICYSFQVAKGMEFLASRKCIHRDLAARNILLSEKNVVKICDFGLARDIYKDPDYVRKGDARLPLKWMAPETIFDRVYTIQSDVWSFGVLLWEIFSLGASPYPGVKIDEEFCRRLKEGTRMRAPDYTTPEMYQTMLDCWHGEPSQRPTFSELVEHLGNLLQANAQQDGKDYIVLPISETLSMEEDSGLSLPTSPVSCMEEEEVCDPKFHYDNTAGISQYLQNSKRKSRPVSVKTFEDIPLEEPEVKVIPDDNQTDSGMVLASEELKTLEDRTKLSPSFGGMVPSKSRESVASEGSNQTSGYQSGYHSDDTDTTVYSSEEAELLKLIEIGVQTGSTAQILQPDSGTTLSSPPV

[9] = test system: MV4-11; experiment: Cell cycle arrest in human MV411 cells assessed as accumulation at G2/M phase at 0.1 uM after 48 hrs by propidium iodide assay; format: functional
[10] = test system: MV4-11; experiment: Cell cycle arrest in human MV411 cells assessed as accumulation at G2/M phase at 0.01 uM after 48 hrs by propidium iodide assay; format: functional
[11] = target: T2, Aurora kinase A (Homo sapiens, UniProt O14965); experiment: Inhibition of Aurora A by HTRF assay
T2 sequence (O14965 whole entry): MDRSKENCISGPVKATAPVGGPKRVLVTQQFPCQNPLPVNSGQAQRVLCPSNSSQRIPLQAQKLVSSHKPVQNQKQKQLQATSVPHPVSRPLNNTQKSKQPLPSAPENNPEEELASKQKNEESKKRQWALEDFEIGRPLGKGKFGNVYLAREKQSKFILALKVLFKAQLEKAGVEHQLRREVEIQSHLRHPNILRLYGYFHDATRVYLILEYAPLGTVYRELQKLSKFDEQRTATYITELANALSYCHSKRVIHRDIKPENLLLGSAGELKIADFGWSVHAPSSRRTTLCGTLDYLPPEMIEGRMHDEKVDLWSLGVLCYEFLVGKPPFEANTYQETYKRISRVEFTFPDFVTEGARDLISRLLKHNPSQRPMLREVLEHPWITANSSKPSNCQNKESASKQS

[12] = test system: MV4-11; experiment: Cell cycle arrest in human MV411 cells assessed as accumulation at G0/G1 phase at 1 uM after 48 hrs by propidium iodide assay; format: functional
[13] = test system: MV4-11; experiment: Cell cycle arrest in human MV411 cells assessed as accumulation at S phase at 1 uM after 48 hrs by propidium iodide assay; format: functional
[14] = target: Epidermal growth factor receptor (Homo sapiens, UniProt P00533); experiment: Inhibition of EGFR by HTRF assay
[15] = test system: MV4-11; experiment: Cell cycle arrest in human MV411 cells assessed as accumulation at G0/G1 phase at 0.1 uM after 48 hrs by propidium iodide assay; format: functional
[16] = test system: MV4-11; experiment: Cell cycle arrest in human MV411 cells assessed as accumulation at S phase at 0.01 uM after 48 hrs by propidium iodide assay; format: functional
[17] = target: Insulin receptor (Homo sapiens, UniProt P06213); experiment: Inhibition of insulin receptor by HTRF assay
Sequence of Insulin receptor (P06213 28-758 limits assumed): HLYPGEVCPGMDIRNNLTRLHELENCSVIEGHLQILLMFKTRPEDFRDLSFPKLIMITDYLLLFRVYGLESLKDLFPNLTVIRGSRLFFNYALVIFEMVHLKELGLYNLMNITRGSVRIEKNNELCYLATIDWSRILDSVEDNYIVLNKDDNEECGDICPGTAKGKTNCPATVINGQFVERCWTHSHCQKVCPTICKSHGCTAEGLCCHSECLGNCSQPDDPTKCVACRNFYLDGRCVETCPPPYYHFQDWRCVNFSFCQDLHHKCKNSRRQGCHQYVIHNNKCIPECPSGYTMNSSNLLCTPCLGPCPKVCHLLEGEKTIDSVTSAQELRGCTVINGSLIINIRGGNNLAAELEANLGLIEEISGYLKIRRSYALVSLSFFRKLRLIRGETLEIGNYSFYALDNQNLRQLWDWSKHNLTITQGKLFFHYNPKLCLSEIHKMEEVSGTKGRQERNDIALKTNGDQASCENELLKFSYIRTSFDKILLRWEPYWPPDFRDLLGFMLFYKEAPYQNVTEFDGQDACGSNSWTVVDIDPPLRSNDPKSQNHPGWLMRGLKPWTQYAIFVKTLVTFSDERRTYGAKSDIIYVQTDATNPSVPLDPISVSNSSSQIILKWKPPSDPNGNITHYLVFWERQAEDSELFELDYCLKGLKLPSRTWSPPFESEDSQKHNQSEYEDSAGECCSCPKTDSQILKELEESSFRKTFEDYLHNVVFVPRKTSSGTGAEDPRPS
Sequence of Insulin receptor (P06213 763-1382 limits assumed): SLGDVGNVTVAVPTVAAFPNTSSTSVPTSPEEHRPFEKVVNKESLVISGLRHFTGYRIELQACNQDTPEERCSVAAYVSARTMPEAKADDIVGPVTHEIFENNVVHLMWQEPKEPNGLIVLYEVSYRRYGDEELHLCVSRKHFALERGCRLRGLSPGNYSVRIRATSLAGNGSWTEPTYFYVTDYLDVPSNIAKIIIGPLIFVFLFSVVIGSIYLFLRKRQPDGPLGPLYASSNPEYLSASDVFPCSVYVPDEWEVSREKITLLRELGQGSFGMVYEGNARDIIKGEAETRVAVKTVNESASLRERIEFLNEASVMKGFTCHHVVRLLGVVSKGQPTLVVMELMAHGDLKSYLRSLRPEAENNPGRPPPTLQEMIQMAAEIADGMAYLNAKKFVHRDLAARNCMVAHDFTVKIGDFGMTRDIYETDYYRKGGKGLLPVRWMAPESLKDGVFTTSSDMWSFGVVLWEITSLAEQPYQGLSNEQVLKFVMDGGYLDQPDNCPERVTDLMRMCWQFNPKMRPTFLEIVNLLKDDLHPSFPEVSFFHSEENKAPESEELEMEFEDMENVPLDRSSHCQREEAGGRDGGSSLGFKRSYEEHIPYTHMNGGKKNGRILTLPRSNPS

[18] = test system: MV4-11; experiment: Cell cycle arrest in human MV411 cells assessed as accumulation at G2/M phase at 1 uM after 48 hrs by propidium iodide assay; format: functional
[19] = target: Macrophage-stimulating protein receptor (Homo sapiens, UniProt Q04912); experiment: Inhibition of Ron by HTRF assay
[20] = test system: MV4-11; experiment: Cell cycle arrest in human MV411 cells assessed as accumulation at sub-G1 phase at 0.01 uM after 48 hrs by propidium iodide assay; format: functional
[21] = test system: MV4-11; experiment: Cell cycle arrest in human MV411 cells assessed as accumulation at S phase at 0.1 uM after 48 hrs by propidium iodide assay; format: functional

SMILES | IC50 [1] | IC50 [3] | IC50 [2] | further results
C[C@]12O[C@H](C[C@]1(O)CO)n1c3ccccc3c3c4c(c5c6ccccc6n2c5c31)CNC4=O [LESTAURTINIB] | 9 nM |  | 120 nM | 
O=C1Nc2ccccc2/C1=C1/Nc2ccccc2C1=O [INDIRUBIN] | > 10000 nM | > 10000 nM | > 10000 nM | 
Nc1ccc2c(c1)/C(=C1/Nc3ccccc3C1=O)C(=O)N2 | 4300 nM | 359 nM | 4670 nM | 
O=C1Nc2ccc([N+](=O)[O-])cc2/C1=C1/Nc2ccc(Br)cc2/C1=N/O | > 270 nM | > 10000 nM | 160 nM | 
O=C1C(c2c(O)[nH]c3ccc(Cl)cc23)=Nc2ccccc21 | 7000 nM | 212 nM | > 10000 nM | 
O=C1C(c2c(O)[nH]c3ccc(S(=O)(=O)O)cc23)=Nc2ccccc21 | > 10000 nM | 280 nM | > 10000 nM | 
O=C1C(c2c(O)[nH]c3ccc(F)cc23)=Nc2ccccc21 | > 10000 nM | 10100 nM | > 10000 nM | 
CC(=O)N1/C(=C2\C(=O)Nc3ccccc32)C(=O)c2ccccc21 | > 10000 nM | > 10000 nM | > 10000 nM | 
O=C1C(c2c(O)[nH]c3ccc([N+](=O)[O-])cc23)=Nc2ccccc21 | > 10000 nM | > 10000 nM | > 10000 nM | 
O=C1Nc2ccc(S(=O)(=O)O)cc2/C1=C1/Nc2ccccc2/C1=N\O | > 10000 nM | 9 nM | > 10000 nM | 
O=C1C(c2c(O)[nH]c3ccc(I)cc23)=Nc2ccccc21 | 4790 nM | 4720 nM | > 10000 nM | 
Cc1cc(Cl)cc2c1NC(=O)/C2=C1\Nc2ccccc2\C1=N/O | > 10000 nM | > 10000 nM | > 10000 nM | 
O=C1Nc2ccc(OC(F)(F)F)cc2/C1=C1/Nc2ccccc2/C1=N\O | > 3550 nM | > 10000 nM | 3360 nM | 

Continued by falling IC50 [1], values first:

IC50 [1] | IC50 [3] | SMILES | IC50 [2] | further results
3360 nM |  | Nc1ccn([C@@H]2O[C@H](CO)[C@@H](O)[C@@H]2O)c(=O)n1 [CYTARABINE] | 260 nM | 
2400 nM | 952 nM | Cc1cc(C)c2c(c1)/C(=C1/Nc3ccccc3/C1=N\O)C(=O)N2 | > 10000 nM | 
1650 nM | 128 nM | Nc1ccc2c(c1)/C(=C1/Nc3ccccc3/C1=N\O)C(=O)N2 | 3340 nM | 
1540 nM | 209 nM | Cc1ccc2[nH]c(O)c(C3=Nc4ccccc4C3=O)c2c1 | > 10000 nM | 
450 nM | 62 nM | O=Nc1c(-c2c(O)[nH]c3ccc([N+](=O)[O-])cc23)[nH]c2ccccc12 | 560 nM | 
360 nM | 418 nM | O=Nc1c(-c2c(O)[nH]c3ccc(I)cc23)[nH]c2ccccc12 | 1450 nM | 
260 nM | 28 nM | Cc1ccc2c(c1)/C(=C1/Nc3ccccc3/C1=N\O)C(=O)N2 | 8560 nM | 
220 nM | 82 nM | O=C1Nc2ccc(Cl)cc2/C1=C1/Nc2ccccc2/C1=N\O | 1580 nM | 
150 nM | 33 nM | O=Nc1c(-c2c(O)[nH]c3ccccc23)[nH]c2ccccc12 [INDIRUBIN-3-MONOXIME] | 3560 nM | 
72 nM | 15 nM | O=C1Nc2ccc(F)cc2/C1=C1/Nc2ccccc2/C1=N\O | 2210 nM | Activity [4]: 61.62%; Activity [5]: 32.76%; Activity [6]: 37.73%; IC50 [7]: > 10000 nM; IC50 [8]: 1530 nM; Activity [9]: 2.91%; Activity [10]: 11.53%; IC50 [11]: 1270 nM; Activity [12]: 58.06%; Activity [13]: 2.85%; IC50 [14]: > 10000 nM; Activity [15]: 57.44%; Activity [16]: 16.55%; IC50 [17]: > 10000 nM; Activity [18]: 1.05%; IC50 [19]: > 10000 nM; Activity [20]: 9.24%; Activity [21]: 6.42%
